In the OligoGym collection:
Where “and” joins values, the source holds several entries; their conditions need not be identical. Identical values can stand only once. HELM strings list units from the 5' end as sugar, base in round brackets, then linkage (d deoxyribose, r ribose, m 2'-O-methyl, p phosphodiester). Methylation of C is not given here. [moe] = 2'-O-(2-methoxyethyl) (MOE); [cEt] = constrained ethyl (cEt); [sp] = phosphorothioate linkage

Target: HBV
Details: ASO

Row | Substance | target mRNA inhibition (HepG2, 0.07 µM) | further results
1 | RNA1{[cEt](A)[sp].[moe](G)[sp].[cEt](C)[sp].d(G)[sp].d(A)[sp].d(A)[sp].d(G)[sp].d(T)[sp].d(G)[sp].d(C)[sp].d(A)[sp].[moe](C)[sp].[moe](A)[sp].[moe](C)[sp].[moe](G)[sp].[moe](G)}$$$$V2.0 |  | target mRNA inhibition (HepG2, 0.009375 µM): 37%; target mRNA inhibition (HepG2, 0.01875 µM): 39%; target mRNA inhibition (HepG2, 0.0375 µM): 59%; target mRNA inhibition (HepG2, 0.075 µM): 72%; target mRNA inhibition (HepG2, 0.15 µM): 86%; target mRNA inhibition (HepG2, 0.3 µM): 90%
2 | RNA1{[moe](G)[sp].[cEt](A)[sp].d(A)[sp].d(C)[sp].d(T)[sp].d(G)[sp].d(G)[sp].d(A)[sp].d(G)[sp].d(C)[sp].d(C)[sp].d(A)[sp].[cEt](C)[sp].[moe](C)[sp].[cEt](A)[sp].[moe](G)}$$$$V2.0 | 68% and 56% | 
3 | RNA1{[moe](A)[sp].[cEt](C)[sp].[cEt](C)[sp].d(A)[sp].d(C)[sp].d(T)[sp].d(G)[sp].d(A)[sp].d(A)[sp].d(C)[sp].d(A)[sp].d(A)[sp].d(A)[sp].[cEt](T)[sp].[cEt](G)[sp].[moe](G)}$$$$V2.0 | 70% and 57% | 
4 | RNA1{[moe](G)[sp].[cEt](A)[sp].[cEt](G)[sp].d(A)[sp].d(A)[sp].d(G)[sp].d(T)[sp].d(C)[sp].d(C)[sp].d(A)[sp].d(C)[sp].d(C)[sp].d(A)[sp].[cEt](C)[sp].[cEt](G)[sp].[moe](A)}$$$$V2.0 | 62% and 54% | 
5 | RNA1{[moe](A)[sp].[moe](A)[sp].[moe](C)[sp].[moe](T)[sp].[moe](G)[sp].d(G)[sp].d(A)[sp].d(G)[sp].d(C)[sp].d(C)[sp].d(A)[sp].d(C)[sp].d(C)[sp].d(A)[sp].[moe](G)[sp].[moe](C)[sp].[moe](A)}$$$$V2.0 | 31% and 37% | 
6 | RNA1{[moe](T)[sp].[moe](T)[sp].[moe](T)[sp].d(A)[sp].d(T)[sp].d(G)[sp].d(C)[sp].d(C)[sp].d(T)[sp].d(A)[sp].d(C)[sp].d(A)[sp].[moe](G)[sp].[moe](C)[sp].[moe](C)[sp].[moe](T)[sp].[moe](C)}$$$$V2.0 | 62% and 49% | 
7 | RNA1{[moe](G)[sp].[moe](A)[sp].[moe](G)[sp].[moe](G)[sp].d(C)[sp].d(A)[sp].d(T)[sp].d(A)[sp].d(G)[sp].d(C)[sp].d(A)[sp].d(G)[sp].d(C)[sp].[moe](A)[sp].[moe](G)[sp].[moe](G)}$$$$V2.0 | 45% and 50% | 
8 | RNA1{[moe](T)[sp].[moe](T)[sp].d(C)[sp].d(C)[sp].d(G)[sp].d(C)[sp].d(A)[sp].d(G)[sp].d(T)[sp].d(A)[sp].d(T)[sp].[moe](G)[sp].[moe](G)[sp].[moe](A)[sp].[moe](T)[sp].[moe](C)[sp].[moe](G)}$$$$V2.0 | 67% and 72% | 
9 | RNA1{[moe](A)[sp].[moe](C)[sp].[moe](C)[sp].[moe](A)[sp].d(C)[sp].d(T)[sp].d(G)[sp].d(A)[sp].d(A)[sp].d(C)[sp].d(A)[sp].d(A)[sp].d(A)[sp].[moe](T)[sp].[moe](G)[sp].[moe](G)}$$$$V2.0 | 54% and 65% | 
10 | RNA1{[moe](C)[sp].[moe](C)[sp].[moe](A)[sp].[moe](A)[sp].[moe](T)[sp].d(T)[sp].d(T)[sp].d(A)[sp].d(T)[sp].d(G)[sp].d(C)[sp].d(C)[sp].d(T)[sp].d(A)[sp].[moe](C)[sp].[moe](A)}$$$$V2.0 | 15% and 6% | 
11 | RNA1{[moe](A)[sp].[cEt](G)[sp].d(A)[sp].d(A)[sp].d(G)[sp].d(T)[sp].d(C)[sp].d(C)[sp].d(A)[sp].d(C)[sp].d(C)[sp].d(A)[sp].[cEt](C)[sp].[moe](G)[sp].[cEt](A)[sp].[moe](G)}$$$$V2.0 | 55% and 37% | 
12 | RNA1{[moe](T)[sp].[moe](T)[sp].[moe](C)[sp].[moe](C)[sp].d(G)[sp].d(C)[sp].d(A)[sp].d(G)[sp].d(T)[sp].d(A)[sp].d(T)[sp].d(G)[sp].d(G)[sp].[moe](A)[sp].[moe](T)[sp].[moe](C)}$$$$V2.0 | 43% and 49% | 
13 | RNA1{[moe](A)[sp].[moe](A)[sp].[moe](C)[sp].[moe](C)[sp].[moe](A)[sp].[moe](C)[sp].d(T)[sp].d(G)[sp].d(A)[sp].d(A)[sp].d(C)[sp].d(A)[sp].d(A)[sp].d(A)[sp].d(T)[sp].[moe](G)[sp].[moe](G)}$$$$V2.0 | 60% and 45% | 
14 | RNA1{[moe](T)[sp].[moe](G)[sp].[moe](C)[sp].[moe](A)[sp].[moe](G)[sp].d(A)[sp].d(G)[sp].d(G)[sp].d(T)[sp].d(G)[sp].d(A)[sp].d(A)[sp].d(G)[sp].d(C)[sp].[moe](G)[sp].[moe](A)}$$$$V2.0 | 61% and 52% | 
15 | RNA1{[moe](G)[sp].[moe](T)[sp].[moe](T)[sp].d(C)[sp].d(C)[sp].d(G)[sp].d(C)[sp].d(A)[sp].d(G)[sp].d(T)[sp].d(A)[sp].d(T)[sp].d(G)[sp].[cEt](G)[sp].[cEt](A)[sp].[cEt](T)}$$$$V2.0 | 52% and 67% | 
16 | RNA1{[moe](A)[sp].[moe](A)[sp].[moe](G)[sp].d(A)[sp].d(T)[sp].d(G)[sp].d(A)[sp].d(G)[sp].d(G)[sp].d(C)[sp].d(A)[sp].d(T)[sp].[moe](A)[sp].[moe](G)[sp].[moe](C)[sp].[moe](A)[sp].[moe](G)}$$$$V2.0 | 69% and 60% | 

Row | Substance | target mRNA inhibition (HepG2, 0.07 µM) | further results
17 | RNA1{[moe](A)[sp].[moe](G)[sp].d(G)[sp].d(T)[sp].d(G)[sp].d(A)[sp].d(A)[sp].d(G)[sp].d(C)[sp].d(G)[sp].d(A)[sp].[moe](A)[sp].[moe](G)[sp].[moe](T)[sp].[moe](G)[sp].[moe](C)}$$$$V2.0 | 70% and 60% | 
18 | RNA1{[moe](A)[sp].[moe](G)[sp].d(G)[sp].d(A)[sp].d(G)[sp].d(T)[sp].d(T)[sp].d(C)[sp].d(C)[sp].d(G)[sp].d(C)[sp].[moe](A)[sp].[moe](G)[sp].[moe](T)[sp].[moe](A)[sp].[moe](T)}$$$$V2.0 | 50% and 37% | 
19 | RNA1{[moe](A)[sp].[moe](T)[sp].[moe](T)[sp].d(T)[sp].d(A)[sp].d(T)[sp].d(G)[sp].d(C)[sp].d(C)[sp].d(T)[sp].d(A)[sp].d(C)[sp].d(A)[sp].[cEt](G)[sp].[cEt](C)[sp].[cEt](C)}$$$$V2.0 | 47% and 65% | 
20 | RNA1{[moe](T)[sp].[cEt](G)[sp].[cEt](C)[sp].d(A)[sp].d(G)[sp].d(A)[sp].d(G)[sp].d(G)[sp].d(T)[sp].d(G)[sp].d(A)[sp].d(A)[sp].d(G)[sp].[cEt](C)[sp].[cEt](G)[sp].[moe](A)}$$$$V2.0 | 71% and 73% | 
21 | RNA1{[moe](C)[sp].[moe](G)[sp].[moe](A)[sp].d(A)[sp].d(C)[sp].d(C)[sp].d(A)[sp].d(C)[sp].d(T)[sp].d(G)[sp].d(A)[sp].d(A)[sp].d(C)[sp].[cEt](A)[sp].[cEt](A)[sp].[cEt](A)}$$$$V2.0 | 41% and 54% | 
22 | RNA1{[moe](C)[sp].[moe](A)[sp].[moe](C)[sp].[moe](T)[sp].d(A)[sp].d(G)[sp].d(T)[sp].d(A)[sp].d(A)[sp].d(A)[sp].d(C)[sp].d(T)[sp].d(G)[sp].[moe](A)[sp].[moe](G)[sp].[moe](C)[sp].[moe](C)}$$$$V2.0 | 61% and 54% | 
23 | RNA1{[moe](G)[sp].[cEt](G)[sp].d(C)[sp].d(A)[sp].d(T)[sp].d(A)[sp].d(G)[sp].d(C)[sp].d(A)[sp].d(G)[sp].d(C)[sp].d(A)[sp].[cEt](G)[sp].[moe](G)[sp].[cEt](A)[sp].[moe](T)}$$$$V2.0 | 74% and 75% | 
24 | RNA1{[moe](T)[sp].[moe](G)[sp].[moe](A)[sp].[moe](G)[sp].[moe](G)[sp].d(C)[sp].d(A)[sp].d(T)[sp].d(A)[sp].d(G)[sp].d(C)[sp].d(A)[sp].d(G)[sp].d(C)[sp].[moe](A)[sp].[moe](G)[sp].[moe](G)}$$$$V2.0 | 45% and 44% | 
25 | RNA1{[moe](G)[sp].[moe](G)[sp].[moe](C)[sp].d(A)[sp].d(T)[sp].d(A)[sp].d(G)[sp].d(C)[sp].d(A)[sp].d(G)[sp].d(C)[sp].d(A)[sp].d(G)[sp].[moe](G)[sp].[moe](A)[sp].[moe](T)[sp].[moe](G)}$$$$V2.0 |  | target mRNA inhibition (HepG2, 0.0092593 µM): 11%; target mRNA inhibition (HepG2, 0.009375 µM): 42%; target mRNA inhibition (HepG2, 0.01875 µM): 30%; target mRNA inhibition (HepG2, 0.0277778 µM): 28%; target mRNA inhibition (HepG2, 0.0375 µM): 43%; target mRNA inhibition (HepG2, 0.075 µM): 61%; target mRNA inhibition (HepG2, 0.0833333 µM): 60%; target mRNA inhibition (HepG2, 0.15 µM): 77%; target mRNA inhibition (HepG2, 0.25 µM): 77%; target mRNA inhibition (HepG2, 0.3 µM): 91%
26 | RNA1{[moe](G)[sp].[moe](A)[sp].d(A)[sp].d(C)[sp].d(C)[sp].d(A)[sp].d(C)[sp].d(T)[sp].d(G)[sp].d(A)[sp].d(A)[sp].[moe](C)[sp].[moe](A)[sp].[moe](A)[sp].[moe](A)[sp].[moe](T)}$$$$V2.0 | 37% and 25% | 
27 | RNA1{[moe](G)[sp].[moe](C)[sp].[moe](A)[sp].[moe](G)[sp].d(A)[sp].d(G)[sp].d(G)[sp].d(T)[sp].d(G)[sp].d(A)[sp].d(A)[sp].d(G)[sp].d(C)[sp].[moe](G)[sp].[moe](A)[sp].[moe](A)}$$$$V2.0 | 60% | 
28 | RNA1{[moe](C)[sp].[cEt](A)[sp].d(A)[sp].d(T)[sp].d(T)[sp].d(T)[sp].d(A)[sp].d(T)[sp].d(G)[sp].d(C)[sp].d(C)[sp].d(T)[sp].[cEt](A)[sp].[moe](C)[sp].[cEt](A)[sp].[moe](G)}$$$$V2.0 | 35% and 34% | 
29 | RNA1{[moe](C)[sp].[moe](G)[sp].d(C)[sp].d(A)[sp].d(G)[sp].d(T)[sp].d(A)[sp].d(T)[sp].d(G)[sp].d(G)[sp].d(A)[sp].[moe](T)[sp].[moe](C)[sp].[moe](G)[sp].[moe](G)[sp].[moe](C)[sp].[moe](A)}$$$$V2.0 | 82% and 80% | 
30 | RNA1{[moe](G)[sp].[moe](A)[sp].[moe](T)[sp].[moe](G)[sp].d(A)[sp].d(G)[sp].d(G)[sp].d(C)[sp].d(A)[sp].d(T)[sp].d(A)[sp].d(G)[sp].d(C)[sp].[moe](A)[sp].[moe](G)[sp].[moe](C)[sp].[moe](A)}$$$$V2.0 | 0% and 13% | 
31 | RNA1{[moe](A)[sp].[moe](C)[sp].[moe](C)[sp].[moe](A)[sp].[moe](C)[sp].d(T)[sp].d(G)[sp].d(A)[sp].d(A)[sp].d(C)[sp].d(A)[sp].d(A)[sp].d(A)[sp].d(T)[sp].[moe](G)[sp].[moe](G)[sp].[moe](C)}$$$$V2.0 | 59% and 61% | 
